The values below come from patent publication US20060063736A1, “Compositions and methods for inhibiting mucin-type O-linked glycosylation” (priority 2004, published 2006).

The subject of experiment [1] is Jurkat cells. Briefly: Annexin-V staining of Jurkat cells (apoptosis). Type of experiment: cell-based, human. Particulars: 2 d treatment. On the procedure:
Jurkat cells were seeded at 250,000 cells/well (determined by Coulter cell counter) in 12-well polystyrene tissue culture plates in 1.0 mL of media and treated with various concentrations of 1-68A or 2-68A from 50 mM dimethyl sulfoxide (DMSO) stock solutions or doxorubicin or campothecin from 1 mM DMSO stock solutions. After 2 d, cells were harvested, washed twice with PBS buffer (PBS, pH 7.4, 0.1% FCS, 0.1% NaN3 w/v) and stained with FITC-HPA (1 μg/mL) or FITC-Con A (5 μg/mL with 1 mM CaCl2) in PBS, pH 7.4 in the dark for 1 h at 4° C. Cells were washed twice with PBS buffer, resuspended in 300 μL of PBS buffer and analyzed by flow cytometry (FacsCaliber, BD Instruments). Annexin-V staining was performed according to the manufacturer's protocols (Invitrogen).
To directly monitor ppGalNAcT activities in cells, Jurkat cells (human T-cell lymphoma), which are known to produce only the Tn-antigen (FIG. 1) as their O-linked glycans, were chosen. Piller et al. (1990) J. Biol. Chem. 265:9264-9271. Changes in Tn-antigen expression on the surface of Jurkat cells were monitored by HPA binding followed by flow cytometry analysis. Con A staining of N-linked glycans was used as a control for non-specific inhibition of protein glycosylation. Baenziger and Fiete (1979) J. Biol. Chem. 254:2400-2407.

In experiment [2] the target is T1, mppGalNAcT-4 (Mus musculus, UniProt O08832).
T1 construct: plasmids encoding truncated secreted ppGalNAcTs-1 to −5, -7, -10 and -11; made in house; host or cells: COS-7
T1 sequence (O08832 36-578 limits assumed): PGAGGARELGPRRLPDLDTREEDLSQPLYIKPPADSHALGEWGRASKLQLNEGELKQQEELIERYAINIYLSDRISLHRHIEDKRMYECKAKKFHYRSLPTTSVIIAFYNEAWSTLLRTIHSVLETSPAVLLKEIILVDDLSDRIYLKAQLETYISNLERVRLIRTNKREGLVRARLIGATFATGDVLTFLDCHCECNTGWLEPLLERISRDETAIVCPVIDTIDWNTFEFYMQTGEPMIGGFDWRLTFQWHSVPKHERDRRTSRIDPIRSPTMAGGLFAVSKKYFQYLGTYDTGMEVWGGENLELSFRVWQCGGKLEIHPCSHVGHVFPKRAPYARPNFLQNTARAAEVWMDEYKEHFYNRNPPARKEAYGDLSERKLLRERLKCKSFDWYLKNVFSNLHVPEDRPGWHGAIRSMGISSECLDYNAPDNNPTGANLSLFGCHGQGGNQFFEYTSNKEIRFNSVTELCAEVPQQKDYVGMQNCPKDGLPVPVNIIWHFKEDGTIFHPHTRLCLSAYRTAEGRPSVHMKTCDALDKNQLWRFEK
The experiment can be described thus: ELLA for ppGalNAcTs, mppGalNAcT-4. To be noted: 20 μM UDP-GalNAc, 50 μM EA2 peptide 4. Type of experiment: biochemical, murine. The method, then:
COS-7 cells were transiently transfected with plasmids encoding truncated secreted ppGalNAcTs-1 to −5, -7, -10 and -11 as previously described. Hagen et al. (1997) J. Biol. Chem. 272:13843-13848. The crude conditioned medium was used as the enzyme source.
Standard reaction conditions for ppGalNAcT assays were as follows. The reaction mixture contained the following components in a final volume of 25 μL: 10 mM MnCl2, 40 mM sodium cacodylate, 40 mM β-mercaptoethanol, 0.1% Triton X-100, pH 6.5, 5 μL of conditioned media, and various concentrations of EA2 peptide 4, UDP-GalNAc and inhibitor. All uridine-based compounds were dissolved in dimethyl sulfoxide (DMSO). […] Reaction rates were linear over the period monitored (20-30 min).
96-Well NeutrAvidin-coated plates were prewashed 3 times with 200 μL of wash buffer (25 mM Tris, 150 mM NaCl, 0.1% bovine serum albumin (BSA) (w/v), and 0.05% Tween (v/v), pH 7.2). […] After 3 washes with 200 μL of PBS, bound HPA-HRP was quantified by the addition of 100 μL of TMB peroxide solution. […] HRP activity was terminated by the addition of 50 μL of 2 N H2SO4 and the resulting solution was analyzed at 450 nm using a UV/Vis microtiter plate reader. The amount of product generated by the ppGalNAcT was extrapolated from absorbance values using an equation fit to the standard curve derived from Origin 6.1 software.

Each structure is given as a SMILES string.

Usually IC50 stands for the concentration that inhibits the measured activity by half. Low values mean inhibition by little substance, high ones a need for much substance.

`O=c1ccn([C@@H]2O[C@H](CON=Cc3ccc(O)c(O)c3O)[C@@H](O)[C@H]2O)c(=O)[nH]1` [1-68A]: the “Annexin-V staining (induction of apoptosis)” value in experiment [1] is on record as “confirmed the induction of apoptosis”. This compound also gave an IC50 in experiment [2] of 30 ± 5 µM.

Turning to `O=C(CON=Cc1ccc(O)c(O)c1O)NC[C@H]1O[C@@H](n2ccc(=O)[nH]c2=O)[C@H](O)[C@@H]1O` [2-68A], the “Annexin-V staining (induction of apoptosis)” value in experiment [1] is given as “confirmed the induction of apoptosis”. In experiment [2], this compound displayed an IC50 of 20 ± 5 µM.
